Test results as given in patent publication US11505528B2, “Inhibitors of microbially induced amyloid” (Axial Therapeutics, Inc., priority 2017, dated 2022).
Read-outs that look alike come from different tables or passages of the source.

Key:
E. coli CsgA = target: T1, E. coli CsgA (Escherichia coli, UniProt P28307); test: Thioflavin T cell-free assay of CsgA aggregation; type: biochemical
T1 construct: 6xHis (C); made in house; host or cells: E. coli NEB 3016 slyD::kan

human α-synuclein = target: T2, human α-synuclein (Homo sapiens, UniProt P37840); test: Thioflavin T cell-free assay of α-synuclein aggregation; type: biochemical; conditions: α-synuclein 50 μM, compounds at 20-50 μM, data from 36 hours; for Inhibition of Aggregation, αSyn: ThT fluorescence, negative = potentiation
T2 construct: the full-length gene for untagged human α-synuclein was inserted; made in house; host or cells: E. coli BL21 (DE3)

[1] = read-out: Inhibition of Aggregation, CsgA
[2] = read-out: Inhibition of Aggregation, CsgA (compound activity range)

T1 sequence (P28307 23-151): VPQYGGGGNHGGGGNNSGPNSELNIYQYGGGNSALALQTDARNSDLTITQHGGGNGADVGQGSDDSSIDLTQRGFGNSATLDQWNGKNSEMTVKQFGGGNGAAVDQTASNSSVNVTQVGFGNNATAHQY

SMILES	inhibition at 20 µM (E. coli CsgA; [1]) [%]	inhibition at 20 µM (E. coli CsgA; [2]) [%]	Inhibition of Aggregation, αSyn (human α-synuclein) [%]	Inhibition of Aggregation, αSyn (compound activity range) (human α-synuclein)
COc1cc(OC)cc(C(=O)Nc2sc3c(c2C(=O)Nc2cc(OC)c(OC)c(OC)c2)CCCC3)c1 [Compound 3, 2-(3,5-dimethoxybenzamido)-N-(3,4,5-trimethoxyphenyl)-4,5,6,7-tetrahydrobenzo[b]thiophene-3-carboxamide]	-11	< -10		
COc1cc2[nH]cc(C(=O)Nc3ccc(O)cc3)c(=O)c2c(OC)c1OC [Compound 29, N-(4-hydroxyphenyl)-5,6,7-trimethoxy-4-oxo-1,4-dihydroquinoline-3-carboxamide]	9	-10 to 10		
O=C(Nc1ccccc1)c1c[nH]c2ccccc2c1=O [Compound 45, 4-oxo-N-phenyl-1,4-dihydroquinoline-3-carboxamide]	-18	< -10		
O=C(Nc1ccc(O)cc1)c1c[nH]c2cc(O)c(O)c(O)c2c1=O [Compound 38, 5,6,7-trihydroxy-N-(4-hydroxyphenyl)-4-oxo-1,4-dihydroquinoline-3-carboxamide]			14	(+) ((+) is between 10% to 30% inhibition)
COc1cc(NC(=O)c2c(N(C)C(=O)c3cc(OC)c(OC)c(OC)c3)sc3c2CCCC3)cc(OC)c1OC [Compound 13, 2-(3,4,5-trimethoxy-N-methylbenzamido)-N-(3,4,5-trimethoxyphenyl)-4,5,6,7-tetrahydrobenzo[b]thiophene-3-carboxamide]	-16	< -10		
COc1cc2[nH]cc(C(=O)Nc3ccccc3)c(=O)c2c(OC)c1OC [Compound 30, 5,6,7-trimethoxy-4-oxo-N-phenyl-1,4-dihydroquinoline-3-carboxamide]	-56	< -10		
COc1cc2[nH]cc(C(=O)Nc3ccccc3O)c(=O)c2c(OC)c1OC [Compound 39, N-(2-hydroxyphenyl)-5,6,7-trimethoxy-4-oxo-1,4-dihydroquinoline-3-carboxamide]	-4	-10 to 10		
COc1cc(C(=O)Nc2sc3c(c2C(=O)N(C)c2cc(OC)c(OC)c(OC)c2)CCCC3)cc(OC)c1OC [Compound 7, N-methyl-2-(3,4,5-trimethoxybenzamido)-N-(3,4,5-trimethoxyphenyl)-4,5,6,7-tetrahydrobenzo[b]thiophene-3-carboxamide]	2	-10 to 10		
O=C(Nc1sc2c(c1C(=O)Nc1cc(O)c(O)c(O)c1)CCCC2)c1cc(O)cc(O)c1 [Compound 4, 2-(3,5-dihydroxybenzamido)-N-(3,4,5-trihydroxyphenyl)-4,5,6,7-tetrahydrobenzo[b]thiophene-3-carboxamide]	43	30 to 60		
COc1cc(C(=O)Nc2sc3c(c2C(=O)Nc2ccccc2)CCCC3)cc(OC)c1OC [Compound 9, N-phenyl-2-(3,4,5-trimethoxybenzamido)-4,5,6,7-tetrahydrobenzo[b]thiophene-3-carboxamide]	-33	< -10		
COc1cc(OC)c2c(=O)c(C(=O)Nc3cc(OC)c(OC)c(OC)c3)c[nH]c2c1 [Compound 21, 5,7-dimethoxy-4-oxo-N-(3,4,5-trimethoxyphenyl)-1,4-dihydroquinoline-3-carboxamide]	4	-10 to 10	−1	(−) ((−) is between −10% to 10% inhibition)
COc1cc(OC)c2c(=O)c(C(=O)N(C)c3cc(OC)c(OC)c(OC)c3)c[nH]c2c1 [Compound 35, 5,7-dimethoxy-N-methyl-4-oxo-N-(3,4,5-trimethoxyphenyl)-1,4-dihydroquinoline-3-carboxamide]	-53	< -10		
COc1cc(NC(=O)c2c(-c3cc(OC)c(OC)c(OC)c3)[nH]c3cc(OC)c(OC)c(OC)c3c2=O)cc(OC)c1OC [Compound 40, 5,6,7-trimethoxy-4-oxo-N,2-bis(3,4,5-trimethoxyphenyl)-1,4-dihydroquinoline-3-carboxamide]	15	10 to 30	−12	(−−) ((−−) is less than −10% inhibition)
COc1cc(OC)c2c(=O)c(C(=O)Nc3ccccc3O)c[nH]c2c1 [Compound 41, N-(2-hydroxyphenyl)-5,7-dimethoxy-4-oxo-1,4-dihydroquinoline-3-carboxamide]	18	10 to 30	17	(+) ((+) is between 10% to 30% inhibition)
COc1cc(NC(=O)c2c(NC(=O)c3ccccc3)sc3c2CCCC3)cc(OC)c1OC [Compound 11, 2-benzamido-N-(3,4,5-trimethoxyphenyl)-4,5,6,7-tetrahydrobenzo[b]thiophene-3-carboxamide]	-24	< -10		
O=C(Nc1cc(O)c(O)c(O)c1)c1c[nH]c2cc(O)cc(O)c2c1=O [Compound 22, 5,7-dihydroxy-4-oxo-N-(3,4,5-trihydroxyphenyl)-1,4-dihydroquinoline-3-carboxamide]	58	30 to 60		

SMILES	inhibition at 20 µM (E. coli CsgA; [1]) [%]	inhibition at 20 µM (E. coli CsgA; [2]) [%]	Inhibition of Aggregation, αSyn (human α-synuclein) [%]	Inhibition of Aggregation, αSyn (compound activity range) (human α-synuclein)
O=C(Nc1ccccc1)c1c[nH]c2cc(O)c(O)c(O)c2c1=O [Compound 33, 5,6,7-trihydroxy-4-oxo-N-phenyl-1,4-dihydroquinoline-3-carboxamide]	59	30 to 60	92	(+++) ((+++) is greater than 60% inhibition)
COc1cc(NC(=O)c2c(NC(=O)c3cc(OC)c(OC)c(OC)c3)sc3c2CCCC3)cc(OC)c1OC [Compound 1, 2-(3,4,5-trimethoxybenzamido)-N-(3,4,5-trimethoxyphenyl)-4,5,6,7-tetrahydrobenzo[b]thiophene-3-carboxamide]	8	-10 to 10		
COc1cc2[nH]cc(C(=O)Nc3ccc(O)c(F)c3)c(=O)c2c(OC)c1OC [Compound 34, N-(3-fluoro-4-hydroxyphenyl)-5,6,7-trimethoxy-4-oxo-1,4-dihydroquinoline-3-carboxamide]	-11	< -10		
O=C(Nc1sc2c(c1C(=O)Nc1cc(O)c(O)c(O)c1)CCCC2)c1ccccc1 [Compound 18, 2-benzamido-N-(3,4,5-trihydroxyphenyl)-4,5,6,7-tetrahydrobenzo[b]thiophene-3-carboxamide]	16	10 to 30		
NC(=O)c1c(NC(=O)c2cc(O)c(O)c(O)c2)sc2c1CCCC2 [Compound 15, 2-(3,4,5-trihydroxybenzamido)-4,5,6,7-tetrahydrobenzo[b]thiophene-3-carboxamide]	52	30 to 60		
COc1cc(-c2[nH]c3cc(OC)c(OC)c(OC)c3c(=O)c2C(=O)O)cc(OC)c1OC [Compound 36, 5,6,7-trimethoxy-4-oxo-2-(3,4,5-trimethoxyphenyl)-1,4-dihydroquinoline-3-carboxylic acid]	-47	< -10		
COc1cc(OC)c2c(=O)c(C(=O)Nc3ccc(O)cc3)c[nH]c2c1 [Compound 31, N-(4-hydroxyphenyl)-5,7-dimethoxy-4-oxo-1,4-dihydroquinoline-3-carboxamide]	-20	< -10		
COc1cc(C(=O)Nc2sc3c(c2C(N)=O)CCCC3)cc(OC)c1OC [Compound 12, 2-(3,4,5-trimethoxybenzamido)-4,5,6,7-tetrahydrobenzo[b]thiophene-3-carboxamide]	-23	< -10		
COc1cc(OC)c2c(=O)c(C(=O)Nc3ccccc3)c[nH]c2c1 [Compound 25, 5,7-dimethoxy-4-oxo-N-phenyl-1,4-dihydroquinoline-3-carboxamide]	-150	< -10	17	(+) ((+) is between 10% to 30% inhibition)
O=C(Nc1sc2c(c1C(=O)Nc1ccccc1)CCCC2)c1cc(O)c(O)c(O)c1 [Compound 8, N-phenyl-2-(3,4,5-trihydroxybenzamido)-4,5,6,7-tetrahydrobenzo[b]thiophene-3-carboxamide]	13	10 to 30	18	(+) ((+) is between 10% to 30% inhibition)
O=C(Nc1cc(O)cc(O)c1)c1c[nH]c2cc(O)cc(O)c2c1=O [Compound 47, N-(3,5-dihydroxyphenyl)-5,7-dihydroxy-4-oxo-1,4-dihydroquinoline-3-carboxamide]	13	10 to 30		
Nc1sc2c(c1C(=O)Nc1cc(O)c(O)c(O)c1)CCCC2 [Compound 16, 2-amino-N-(3,4,5-trihydroxyphenyl)-4,5,6,7-tetrahydrobenzo[b]thiophene-3-carboxamide]	31	30 to 60		
COc1cc(C(=O)Nc2sc3c(c2C(=O)O)CCCC3)cc(OC)c1OC [Compound 17, 2-(3,4,5-trimethoxybenzamido)-4,5,6,7-tetrahydrobenzo[b]thiophene-3-carboxylic acid]	18	10 to 30		
COc1cc(OC)c2c(=O)c(C(=O)Nc3ccc(O)c(F)c3)c[nH]c2c1 [Compound 37, N-(3-fluoro-4-hydroxyphenyl)-5,7-dimethoxy-4-oxo-1,4-dihydroquinoline-3-carboxamide]	-17	< -10		
O=C(Nc1cccc(O)c1)c1c[nH]c2ccccc2c1=O [Compound 46, N-(3-hydroxyphenyl)-4-oxo-1,4-dihydroquinoline-3-carboxamide]	-7	-10 to 10		
